Bridge positions count the residues as written; N and C are the ends. Side chains are listed from the residue outwards. Peptide text beside a SMILES is read from it. * marks the point of attachment. Butanoyl(4-(4-I-phenyl)) = O=C(CCCc1ccc(I)cc1)*; PEG2 = NCCOCCOCCC(=O)O
Key:
HTR1B = HTR1B (Homo sapiens, UniProt P28222); assay: Safetyscan47 GPCR cAMP, Antagonist; type: cell-based; details: for Emax: read-out: Max Response
integrin αvβ3 = integrin αvβ3 (Homo sapiens, UniProt P05106+P06756); assay: ELISA competition assay, integrin αvβ3; type: binding
NMDAR (1A/2B) = NMDAR (1A/2B) (Homo sapiens, UniProt Q05586+Q13224); assay: Safetyscan47 Ion Channel, Opener; type: cell-based; details: for Emax: read-out: Max Response
PDE3A = PDE3A (Homo sapiens, UniProt Q14432); assay: Safetyscan47 Non-Kinase Enzymes Enzymatic, Inhibitor; type: biochemical; details: for Emax: read-out: Max Response
integrin αvβ6 = integrin αvβ6 (Homo sapiens, UniProt P06756+P18564); assay: ELISA competition assay, integrin αvβ6 binding to LAP; details: αvβ6 IC50, ELISA competition vs LAP; mean, n ≥ 3
DAT = DAT (Homo sapiens, UniProt Q01959); assay: Safetyscan47 Transporter, Blocker; type: cell-based; details: for Emax: read-out: Max Response
KvLQT1/minK = KvLQT1/minK (Homo sapiens, UniProt P15382+P51787); assay: Safetyscan47 Ion Channel, Blocker; type: cell-based; details: for Emax: read-out: Max Response
DRD1 = DRD1 (Homo sapiens, UniProt P21728); assay: Safetyscan47 GPCR cAMP, Agonist; type: cell-based; details: for Emax: read-out: Max Response
CHRM1 = molecular target: T1, CHRM1 (Homo sapiens, UniProt P11229); assay: Safetyscan47 GPCR Calcium Flux, Antagonist; type: cell-based; details: for Emax: read-out: Max Response
T1 sequence (P11229 1-460): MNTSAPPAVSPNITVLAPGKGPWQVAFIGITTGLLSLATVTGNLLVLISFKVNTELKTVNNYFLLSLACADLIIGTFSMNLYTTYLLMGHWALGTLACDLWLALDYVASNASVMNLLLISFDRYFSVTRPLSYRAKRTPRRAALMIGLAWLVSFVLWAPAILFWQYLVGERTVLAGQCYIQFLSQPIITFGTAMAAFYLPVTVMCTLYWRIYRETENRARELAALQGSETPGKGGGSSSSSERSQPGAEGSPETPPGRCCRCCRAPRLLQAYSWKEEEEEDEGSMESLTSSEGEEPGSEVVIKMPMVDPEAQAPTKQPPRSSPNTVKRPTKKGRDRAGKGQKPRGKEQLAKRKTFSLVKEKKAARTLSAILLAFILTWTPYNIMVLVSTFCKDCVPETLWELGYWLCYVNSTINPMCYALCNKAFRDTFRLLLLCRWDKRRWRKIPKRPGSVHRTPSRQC

NAV1.5 = NAV1.5 (Homo sapiens, UniProt Q14524); assay: Safetyscan47 Ion Channel, Blocker; type: cell-based
CAV1.2 = CAV1.2 (Homo sapiens, UniProt Q13936); assay: Safetyscan47 Ion Channel, Blocker; type: cell-based
ADRB1 = ADRB1 (Homo sapiens, UniProt P08588); assay: Safetyscan47 GPCR cAMP, Agonist; type: cell-based; details: for Emax: read-out: Max Response
OPRM1 = OPRM1 (Homo sapiens, UniProt P35372); assay: Safetyscan47 GPCR cAMP, Agonist; type: cell-based; details: for Emax: OPRM1, read-out: Max Response

**Q.** What does the source list for `CC[C@H](C)[C@H](NC(=O)[C@H](CC(C)C)NC(=O)[C@H](CC(=O)O)NC(=O)CNC(=O)[C@H](CCCNC(=N)N)NC(=O)[C@@H](NC(=O)[C@H](Cc1ccccc1)NC(=O)[C@H](Cc1ccc(O)cc1)NC(=O)[C@@H]1CCC(=O)NCC(=O)NCC(=O)N[C@@H](CCCNC(=N)N)C(=O)NCC(=O)N[C@@H](Cc2c[nH]cn2)C(=O)N[C@@H](C(C)C)C(=O)N2CCC[C@H]2C(=O)N1)C(C)C)C(=O)N[C@@H](CO)C(=O)N[C@@H](Cc1ccccc1)C(=O)N[C@@H](Cc1ccc(O)cc1)C(=O)N[C@@H](CCCCN)C(=O)O` [lassotide 36] (GGRGHVPEYFVRGDLISFYK-OH; lactam N-8)?
**A.** IC50 (HTR1B): > 45 µM; Emax (HTR1B): 0%; IC50 (integrin αvβ3): 0.343 µM; EC50 (NMDAR (1A/2B)): > 45 µM; Emax (NMDAR (1A/2B)): 4.66%; IC50 (PDE3A): > 45 µM; Emax (PDE3A): 0%; IC50 (integrin αvβ6): 0.012 µM; IC50 (DAT): > 45 µM; Emax (DAT): 29.8%; IC50 (KvLQT1/minK): > 45 µM; Emax (KvLQT1/minK): 1.8%; EC50 (DRD1): > 45 µM; Emax (DRD1): 0%; IC50 (CHRM1): > 45 µM; Emax (CHRM1): 8.3%; Emax (NAV1.5): 39.5%; IC50 (NAV1.5): > 45 µM; Emax (CAV1.2): 0%; IC50 (CAV1.2): > 45 µM; EC50 (ADRB1): > 45 µM; Emax (ADRB1): 0%; EC50 (OPRM1): > 45 µM; Emax (OPRM1): 3.7%

**Q.** Which results are given for `CC[C@H](C)[C@H](NC(=O)[C@H](CC(C)C)NC(=O)[C@H](CC(=O)O)NC(=O)CNC(=O)[C@H](CCCNC(=N)N)NC(=O)[C@@H](NC(=O)[C@H](Cc1ccccc1)NC(=O)[C@H](Cc1ccc(O)cc1)NC(=O)[C@@H]1CCC(=O)NCC(=O)NCC(=O)N[C@@H](CCCNC(=N)N)C(=O)NCC(=O)N[C@@H](Cc2c[nH]cn2)C(=O)N[C@@H](C(C)C)C(=O)N2CCC[C@H]2C(=O)N1)C(C)C)C(=O)N[C@@H](CO)C(=O)N[C@@H](Cc1ccccc1)C(=O)N[C@@H](Cc1ccc(O)cc1)C(=O)N[C@@H](CCCCNC(=O)CCOCCOCCNC(=O)CCCc1ccc(I)cc1)C(=O)O` [lassotide 47] (GGRGHVPEYFVRGDLISFYK([PEG2-Butanoyl(4-(4-I-phenyl))])-OH; lactam N-8)?
**A.** IC50 (HTR1B): > 45 µM; Emax (HTR1B): 0%; IC50 (integrin αvβ3): 1 µM; EC50 (NMDAR (1A/2B)): > 45 µM; Emax (NMDAR (1A/2B)): 3.52%; IC50 (PDE3A): > 45 µM; Emax (PDE3A): 0.63%; IC50 (integrin αvβ6): 0.0032 µM; IC50 (DAT): > 45 µM; Emax (DAT): 13%; IC50 (KvLQT1/minK): > 45 µM; Emax (KvLQT1/minK): 24.8%; EC50 (DRD1): > 45 µM; Emax (DRD1): 0%; IC50 (CHRM1): > 45 µM; Emax (CHRM1): 0%; Emax (NAV1.5): 0%; IC50 (NAV1.5): > 45 µM; Emax (CAV1.2): 0%; IC50 (CAV1.2): > 45 µM; EC50 (ADRB1): > 45 µM; Emax (ADRB1): 0%; EC50 (OPRM1): > 45 µM; Emax (OPRM1): 18.4%

Reference: paper doi:10.1101/2025.01.28.635346v1 (bioRxiv, 2025)
